The values below come from patent US5618812A, “Benzodiazepine derivatives” (Merck Sharp & Dohme, Ltd., priority 1992, dated 1997).

Assay [1] addresses T1, CCK-B (Cavia porcellus, UniProt H0VZC5).
T1 construct: guinea pig brain (CCK-B); from tissue; host or cells: guinea pig brain
T1 sequence (H0VZC5 1-426): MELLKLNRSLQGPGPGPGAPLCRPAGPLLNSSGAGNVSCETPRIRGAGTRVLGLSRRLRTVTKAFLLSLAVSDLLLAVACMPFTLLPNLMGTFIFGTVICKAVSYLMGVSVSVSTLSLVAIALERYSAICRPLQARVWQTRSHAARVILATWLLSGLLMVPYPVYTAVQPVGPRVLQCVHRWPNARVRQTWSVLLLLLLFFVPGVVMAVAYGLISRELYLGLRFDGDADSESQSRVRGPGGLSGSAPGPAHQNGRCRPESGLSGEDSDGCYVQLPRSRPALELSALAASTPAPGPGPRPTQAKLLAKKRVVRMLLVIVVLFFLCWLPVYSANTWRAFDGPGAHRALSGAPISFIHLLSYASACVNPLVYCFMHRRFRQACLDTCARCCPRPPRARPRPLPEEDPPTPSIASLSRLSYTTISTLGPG
The experiment in a line: displacement of specific 125I-CCK from guinea pig brain (CCK-B receptor binding). The method, then:
The CCK-A and CCK-B antagonising activity of the compounds described herein was evaluated using the assays described in published European patent application no. 0514133. The method essentially involves determining the concentration of the test compound required to displace 50% of the specific ^125 I-CCK from rat pancreas (CCK-A) or guinea pig brain (CCK-B). The data in Table 1 were obtained for compounds of the Examples.

Assay [2] deals with T2, CCK-A (Rattus norvegicus, UniProt P30551).
T2 sequence (P30551 1-444): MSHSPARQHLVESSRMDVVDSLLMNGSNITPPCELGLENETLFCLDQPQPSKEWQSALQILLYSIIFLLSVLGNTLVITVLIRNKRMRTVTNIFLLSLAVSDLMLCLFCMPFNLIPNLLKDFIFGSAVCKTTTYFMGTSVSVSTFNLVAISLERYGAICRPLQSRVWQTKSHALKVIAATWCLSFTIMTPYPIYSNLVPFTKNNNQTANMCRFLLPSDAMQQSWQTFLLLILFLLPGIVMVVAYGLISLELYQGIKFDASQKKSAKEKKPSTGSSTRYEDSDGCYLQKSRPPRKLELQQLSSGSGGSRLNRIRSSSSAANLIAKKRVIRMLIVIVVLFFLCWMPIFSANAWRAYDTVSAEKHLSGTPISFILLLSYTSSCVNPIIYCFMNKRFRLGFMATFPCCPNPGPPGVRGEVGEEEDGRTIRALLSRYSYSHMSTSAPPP
The experiment in a line: biochemical. In kind it is binding. The following applies: rat pancreas (CCK-A), 125I-CCK. As for the experimental part:
The CCK-A and CCK-B antagonising activity of the compounds described herein was evaluated using the assays described in published European patent application no. 0514133. The method essentially involves determining the concentration of the test compound required to displace 50% of the specific ^125 I-CCK from rat pancreas (CCK-A) or guinea pig brain (CCK-B).

The mark [3] stands for this setting: read-out: CCK RECEPTOR BINDING RESULTS IC50 125I-CCK Brain.
The mark [4] stands for this setting: read-out: CCK RECEPTOR BINDING RESULTS IC50 125I-CCK Pancreas.
The mark [5] stands for this setting: CCK RECEPTOR BINDING RESULTS IC50 125I-CCK Brain.

Each structure is given as a SMILES string. Where a name gives a salt, the structure may show the parent alone. Read-outs that look alike come from different tables or passages of the source.

With `CCCN1C(=O)C(NC(=O)Nc2cccc(C)c2)N=C(N2CCC3(CC2)OCCO3)c2ccccc21` (racemic) [Example 1, N-[3(R,S)-2,3-Dihydro-5-(1,4-dioxa-8-azaspiro[4,5]decan-8-yl)-2-oxo-1-propyl-1H-1,4-benzodiazepin-3-yl]N'-[3-methylphenyl]urea], the IC50 in assay [1] (setting [3]) worked out at 14.8 nM; in assay [2] (setting [4]), 724 nM.
In the same order, the values of `CCCN1C(=O)C(NC(=O)Nc2cccc(C)c2)N=C(N2CCC(=O)CC2)c2ccccc21` (racemic) [Example 2, N-[3(R,S)-2,3-Dihydro-2-oxo-5-(4-oxopiperidin-1-yl)-1-propyl-1H-1,4-benzodiazepin-3-yl]N'-[3-methylphenyl] urea] are 2.02 nM and 871 nM.
Regarding `CCCN1C(=O)C(NC(=O)Nc2cccc(C)c2)N=C(N2CCC(NCC(F)(F)F)CC2)c2ccccc21` (racemic) [Example 3, N-[3(R,S)-2,3-Dihydro-2-oxo-1-propyl-5-(4-[1,1,1-trifluoroethylamine]piperidin-1-yl)-1H-1,4-benzodiazepin-3-yl]N'-[3-methylphenyl]urea], the half-maximal inhibitory concentration (IC50) in assay [1] (setting [3]) is 11.6 nM; in assay [2] (setting [4]), 544 nM.
On to `CN1C(=O)C(NC(=O)Nc2ccc3c(c2)CCC3)N=C(N2CCC(C)(C)CC2)c2ccccc21` (racemic) [Example 4, N-[3(R,S)-2,3-Dihydro-5-(4,4-dimethylpiperidin-1-yl)-1-methyl-2-oxo-1H-1,4-benzodiazepin-3-yl]N'-[indan-5-yl]urea], for which the IC50 in assay [1] (setting [3]) came out at 1.19 nM; in assay [2] (setting [4]), 35 nM.
As for `Cc1cccc(NC(=O)NC2N=C(N3CCC(C)CC3)c3ccccc3N(C)C2=O)c1` (racemic) [Example 7, N-[3(R,S)-2,3-Dihydro-1-methyl-5-(4-methylpiperidin-1-yl)-2-oxo-1H-1,4-benzodiazepin-3-yl]N'-[3-methylphenyl]urea], the IC50 was 1.64 nM in assay [1] (setting [3]) and 7.74 nM in assay [2] (setting [4]).
Turning to `Cc1cccc(NC(=O)NC2N=C(N3CCC(C)(C)CC3)c3ccccc3N(C)C2=O)c1` (racemic) [Example 9, N-[3(R,S)-2,3-Dihydro-5-(4,4-dimethylpiperidin-1-yl)-1-methyl-2-oxo-1H-1,4-benzodiazepin-3-yl]N'-[3-methylphenyl]urea], the IC50 in assay [1] (setting [3]) stood at 0.21 nM; in assay [2] (setting [4]), 8.97 nM.
In the same order, the values of `COC1CCN(C2=NC(NC(=O)Nc3cccc(C)c3)C(=O)N(C)c3ccccc32)CC1` (racemic) [Example 11, N-[3(R,S)-2,3-Dihydro-5-(4-methoxypiperidin-1-yl)-1-methyl-2-oxo-1H-1,4-benzodiazepin-3-yl]N'-[3-methylphenyl]urea] are 4.22 nM and 25.2 nM.
In the same order, the values of `CCCN1C(=O)C(NC(=O)Nc2cccc(C)c2)N=C(N2CCC(C)CC2)c2ccccc21` (racemic) [Example 17, N-[3(R,S)-2,3-Dihydro-5-(4-methylpiperidin-1-yl)-2-oxo-1-propyl-1H-1,4-benzodiazepin-3-yl]N'-[3-methylphenyl]urea] are 0.2 nM and 27.2 nM.
With `Cc1cccc(NC(=O)NC2N=C(N3CCC(C)(C)CC3)c3ccccc3N(CC(F)(F)F)C2=O)c1` (racemic) [Example 27, N-[3(R,S)-2,3-Dihydro-5-(4,4,dimethylpiperidin-1-yl)-2-oxo-1-(2,2,2-trifluoroethyl)-1H-1,4-benzodiazepin-3-yl]N'-(3-methylphenyl) urea], the figures for the IC50 in assay [1] (setting [3]) and in assay [2] (setting [4]) were 33 nM and 15 nM, respectively.
Regarding `Cc1cccc(NC(=O)NC2N=C(N3CC4CCC(CC4)C3)c3ccccc3N(C)C2=O)c1` (racemic) [Example 31, N-[3(R,S)-5-(3-Azabicyclo[3,2,2]nonan-3-yl)-2,3-dihydro-1-methyl-2-oxo-1H-1,4-benzodiazepin-3-yl]-N'-[3-methylphenyl]urea], the IC50 in assay [1] (setting [5]) came out at 0.53 nM; in assay [2] (CCK RECEPTOR BINDING RESULTS IC50 125I-CCK Pancreas), 20 nM.
Regarding `CN1C(=O)C(NC(=O)Nc2cccc(F)c2)N=C(N2CC3CCC(CC3)C2)c2ccccc21` (racemic) [Example 35, N-[3(R,S)-5-(3-Azabicyclo[3,2,2]nonan-3-yl)-2,3-dihydro-1-methyl-2-oxo-1H-1,4-benzodiazepin-3-yl]-N'-[3-fluorophenyl]urea], the half-maximal inhibitory concentration (IC50) in assay [1] (setting [5]) was 0.82 nM; in assay [2] (setting [4]) it was 39.6 nM.
Consider `Cc1cccc(NC(=O)NC2N=C(N3CC4CCC(C4)C3)c3ccccc3N(C)C2=O)c1` (racemic) [Example 38, N-[3(R,S)-5-(3-Azabicyclo[3,2,1]octan-3-yl)-2,3-dihydro-1-methyl-2-oxo-1H-1,4-benzodiazepin-3-yl]-N'-[3-methylphenyl]urea], for which the results for the IC50 in assay [1] (setting [3]) and in assay [2] (setting [4]) were 0.71 nM and 7.93 nM, respectively.
Regarding `CN1C(=O)C(NC(=O)Nc2cccc(C(F)(F)F)c2)N=C(N2CC3CCC(CC3)C2)c2ccccc21` (racemic) [Example 42, N-[3(R,S)-5-(3-Azabicyclo[3,2,2]nonan-3-yl)-2,3-dihydro-1-methyl-2-oxo-1H-1,4-benzodiazepin-3-yl]-N'-[3-trifluoromethyl-phenyl]urea], the values for the IC50 in assay [1] (setting [5]) and in assay [2] (setting [4]) were 1.79 nM and 80.4 nM, respectively.
The like results for `CCCN1C(=O)C(NC(=O)Nc2cccc(C)c2)N=C(N2CC3CCC(C2)N3C)c2ccccc21` (racemic) [Example 43, N-[3(R,S)-2,3-Dihydro-5-(8-methyl-3,8-diazabicyclo[3,2,1]octan-3-yl)-2-oxo-1-propyl-1H-1,4-benzodiazepin-3-yl]-N'-[3-methylphenyl]urea] were, in that order, 48.3 nM and above 3000 nM.
As for `Cc1ccc(NC(=O)NC2N=C(N3CC4CCC(CC4)C3)c3ccccc3N(C)C2=O)cc1F` (racemic) [Example 44, N-(3(R,S)-5-(3-Azabicyclo[3,2,2]nonan-3-yl)-2,3-dihydro-1-methyl-2-oxo 1H-1,4-benzodiazepin-3-yl]-N'-[3-fluoro-4-methylphenyl]urea], the results for the IC50 in assay [1] (setting [5]) and in assay [2] (setting [4]) were 0.52 nM and 70.2 nM, respectively.
Regarding `CN1C(=O)C(NC(=O)Nc2cccc(I)c2)N=C(N2CC3CCC(CC3)C2)c2ccccc21` (racemic) [Example 47, N-[3(R,S)-5-(3-Azabicyclo[3,2,2]nonan-3-yl)-2,3-dihydro-1-methyl-2-oxo-1H-1,4-benzodiazepin-3-yl]-N'-[3-iodophenyl]urea], the IC50 in assay [1] (setting [5]) was determined as 1.01 nM; in assay [2] (setting [4]), 26.6 nM.
As for `CN1C(=O)C(NC(=O)Nc2ccccc2)N=C(N2CC3CCC(CC3)C2)c2ccccc21` (racemic) [Example 50, N-[3(R,S)-5-(3-Azabicyclo[3,2,2]nonan-3-yl)-2,3-dihydro-1-methyl-2-oxo-1H-1,4-benzodiazepin-3-yl]-N'-[phenyl]urea], the IC50 in assay [1] (setting [5]) turned out to be 3.9 nM; in assay [2] (setting [4]) it was 10 nM.
With `Cc1cccc(NC(=O)NC2N=C(N3CC4CCC3CC4)c3ccccc3N(C)C2=O)c1` (racemic) [Example 51, N-[3(R,S)-5-(2-Azabicyclo[2,2,2]octan-2-yl)-2,3-dihydro-1-methyl-2-oxo-1H-1,4-benzodiazepin-3-yl]-N'-[3-methylphenyl]urea], the IC50 in assay [1] (setting [3]) is 5.49 nM; in assay [2] (setting [4]) it was 28.5 nM.
Take `Cc1cc(NC(=O)NC2N=C(N3CC4CCC(CC4)C3)c3ccccc3N(C)C2=O)ccc1F` (racemic) [Example 52, N-[3(R,S)-5-(3-Azabicyclo[3,2,2]nonan-3-yl)-2,3-dihydro-1-methyl-2-oxo-1H-1,4-benzodiazepin-3-yl)-N'-[4-fluoro-3-methylphenyl]urea]: the half-inhibitory concentration (IC50) was 0.25 nM in assay [1] (setting [5]) and 18.5 nM in assay [2] (setting [4]).
`Cc1cccc(NC(=O)NC2N=C(N3CC4CCC(CC4)C3)c3ccccc3N(C)C2=O)c1` (single isomer, unassigned; (-)) [Example 33, (-)-N-[5-(3-Azabicyclo[3,2,2]nonan-3-yl)-2,3-dihydro-1-methyl-2-oxo-1H-1,4-benzodiazepin-3-yl]-N'-[3-methylphenyl]urea Hydrochloride] returned an IC50 in assay [1] (setting [5]) of 0.1 nM.
